From ChEMBL document CHEMBL2073882, “Wild-type p53-mediated induction of rat mdr1b expression by the anticancer drug daunorubicin” (J Biol Chem, 1998)

Molecular target: ATP-dependent translocase ABCB1 (Rattus norvegicus, UniProt P43245)
Test: TP_TRANSPORTER: RNase protection assay in vitro, rat hepatoma H-4-II-E cells
Format: functional, cell-based

Chain of ATP-dependent translocase ABCB1 (P43245 whole entry): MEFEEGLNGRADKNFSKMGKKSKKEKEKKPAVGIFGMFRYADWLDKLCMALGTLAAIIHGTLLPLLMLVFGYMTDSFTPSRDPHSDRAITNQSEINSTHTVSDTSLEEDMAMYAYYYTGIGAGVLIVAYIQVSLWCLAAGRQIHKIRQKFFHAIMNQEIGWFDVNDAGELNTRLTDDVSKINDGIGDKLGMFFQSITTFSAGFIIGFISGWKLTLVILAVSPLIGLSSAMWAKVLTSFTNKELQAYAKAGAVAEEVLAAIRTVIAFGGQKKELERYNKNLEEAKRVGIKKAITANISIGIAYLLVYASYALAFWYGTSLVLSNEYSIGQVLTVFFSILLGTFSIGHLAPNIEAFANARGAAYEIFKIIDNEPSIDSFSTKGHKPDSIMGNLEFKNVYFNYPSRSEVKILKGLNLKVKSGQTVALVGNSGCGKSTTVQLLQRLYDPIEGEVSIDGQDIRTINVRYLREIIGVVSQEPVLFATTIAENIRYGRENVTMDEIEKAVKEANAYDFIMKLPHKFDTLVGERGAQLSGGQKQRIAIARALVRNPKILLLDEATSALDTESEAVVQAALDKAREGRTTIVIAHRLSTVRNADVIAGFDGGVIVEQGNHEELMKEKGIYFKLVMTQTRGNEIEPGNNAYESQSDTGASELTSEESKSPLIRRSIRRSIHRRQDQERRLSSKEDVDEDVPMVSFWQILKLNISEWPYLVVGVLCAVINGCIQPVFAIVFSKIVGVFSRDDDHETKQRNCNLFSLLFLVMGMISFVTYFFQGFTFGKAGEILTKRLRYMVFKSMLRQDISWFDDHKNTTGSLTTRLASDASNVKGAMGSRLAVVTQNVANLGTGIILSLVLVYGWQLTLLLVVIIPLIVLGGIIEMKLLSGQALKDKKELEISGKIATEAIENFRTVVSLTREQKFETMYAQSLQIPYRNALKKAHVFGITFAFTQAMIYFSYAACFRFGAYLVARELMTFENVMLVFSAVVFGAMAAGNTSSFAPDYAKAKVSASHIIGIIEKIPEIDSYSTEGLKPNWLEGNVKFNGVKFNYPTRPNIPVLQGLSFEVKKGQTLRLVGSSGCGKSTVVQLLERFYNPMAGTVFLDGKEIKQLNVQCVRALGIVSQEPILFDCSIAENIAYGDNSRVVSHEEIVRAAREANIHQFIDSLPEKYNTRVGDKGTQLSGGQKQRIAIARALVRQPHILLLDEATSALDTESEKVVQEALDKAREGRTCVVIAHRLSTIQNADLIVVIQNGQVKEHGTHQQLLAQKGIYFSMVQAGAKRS

Activity: inducer [+]
Structure (SMILES): COc1cccc2c1C(=O)c1c(O)c3c(c(O)c1C2=O)C[C@@](O)(C(C)=O)C[C@@H]3O[C@H]1C[C@H](N)[C@H](O)[C@H](C)O1 [DAUNORUBICIN]
